Experimental data as given in publication PMC4730229, “Benzobisthiazoles Represent a Novel Scaffold for Kinase Inhibitors of CLK Family Members” (Biochemistry, 2015).

How the values were obtained:
firefly luciferase = assay: Luciferase inhibition assay (Kinase-Glo, no kinase); assay type: biochemical; details: compound at 10 μM
Method: For analysis of luciferase inhibition, 10 μL of luciferase reagent (Kinase-Glo, Promega) was added to 10 μL of a mixture consisting of 1 μM ATP and 5 μM S6K and 10 μM compound (potential kinase inhibitor) in buffer A in the absence of kinase and incubated for 10 min at room temperature in a white well plate before the luminescence was read. The percentage of inhibition is equal to (luminescence in the assay without compound – luminescence in the assay with compound)/(luminescence in the assay without compound) × 100.

CLK2 = CLK2 (Homo sapiens, UniProt P49760); assay: Kinase inhibition assay, IC50; assay type: biochemical; set-up: cDNA encoding the CLK2 catalytic domain (CLK2cd, amino acids 140–496); made in house; host or cells: Escherichia coli BL21(DE3)-R3-lambda-PPase; details: relative to 3A5
PLK1 = PLK1 (Homo sapiens, UniProt P53350); assay: Kinase profiling (radioactive filter binding); assay type: biochemical; details: 1 uM compound
Method: (§1) 3A5 and 5E4 were sent to the International Centre for Kinase Profiling at the MRC Protein Phosphorylation and Ubiquitylation Unit for profiling (as described in ref ([17])). Compounds were profiled against 140 kinases using a radioactive ([^33P]ATP) filter binding assay at a concentration of 1 μM. Results were obtained as inhibition of kinase activity and are listed in Supplementary Table 2.

HIPK3 = HIPK3 (Homo sapiens, UniProt Q9H422); assay: Kinase profiling (radioactive filter binding); assay type: biochemical; details: 1 uM compound
Method: as §1

EIF2AK3 = EIF2AK3 (Homo sapiens, UniProt Q9NZJ5); assay: Kinase profiling (radioactive filter binding); assay type: biochemical; details: 1 uM compound
Method: as §1

MST3 = MST3 (Homo sapiens, UniProt Q9Y6E0); assay: Kinase profiling (radioactive filter binding); assay type: biochemical; details: 1 uM compound
Method: as §1

EPH-B2 = EPH-B2 (Homo sapiens, UniProt P29323); assay: Kinase profiling (radioactive filter binding); assay type: biochemical; details: 1 uM compound
Method: as §1

EPH-B1 = EPH-B1 (Homo sapiens, UniProt P54762); assay: Kinase profiling (radioactive filter binding); assay type: biochemical; details: 1 uM compound
Method: as §1

p38d MAPK = p38d MAPK (Homo sapiens, UniProt O15264); assay: Kinase profiling (radioactive filter binding); assay type: biochemical; details: 1 uM compound
Method: as §1

PIM1 = PIM1 (Homo sapiens, UniProt P11309); assay: Kinase profiling (radioactive filter binding); assay type: biochemical; details: 1 uM compound
Method: as §1

ASK1 = ASK1 (Homo sapiens, UniProt Q99683); assay: Kinase profiling (radioactive filter binding); assay type: biochemical; details: 1 uM compound
Method: as §1

PDGFRA = PDGFRA (Homo sapiens, UniProt P16234); assay: Kinase profiling (radioactive filter binding); assay type: biochemical; details: 1 uM compound
Method: as §1

[1] = target: T1, GST-CLK2cd (CLK2 catalytic domain) (Homo sapiens, UniProt P49760); assay: High-throughput screen, Kinase-Glo in vitro kinase assay; assay type: biochemical; details: compound at 10 μM; read-out: percentage of inhibition on CLK2 (primary screen)
T1 construct: cDNA encoding the CLK2 catalytic domain (CLK2cd, amino acids 140–496); made in house; host or cells: Escherichia coli BL21(DE3)-R3-lambda-PPase
Method: A small molecule inhibitor library consisting of 1600 compounds was obtained from LIFE Chemicals (Kiev, Ukraine). These compounds are part of the CUTE kinase collection that was predicted by in silico profiling against a panel of targets and includes potent kinase inhibitor compounds.[16] Compounds were dissolved as 10 mM stocks in DMSO and stored at room temperature, in the presence of 5% humidity and 5% oxygen in the dark in a Roylan Storage Pod system. Compounds were dispensed into white 384-well plates using the Labcyte Echo520 instrument at a final concentration of 10 μM. Next, 5 μL of 144.92 nM purified GST-CLK2cd in kinase assay buffer A was added to the compounds, incubated for 10 min at room temperature prior to addition of 5 μL of a 2 μM ATP/10 μM S6K peptide mixture, and incubated again for 60 min at room temperature. Subsequently, 10 μL of Kinase-Glo was added to the wells, and the plates were analyzed after 10 min on the Envision II multilabel plate reader (PerkinElmer). […] The percentage of inhibition is equal to 100 – [(total ATP before assay – remaining ATP in assay with compound)/(total ATP before assay – remaining ATP in assay with DMSO) × 100].

PHK = assay: Kinase profiling (radioactive filter binding); assay type: biochemical, human; details: 1 uM compound
Method: as §1

AMPK (hum) = assay: Kinase profiling (radioactive filter binding); assay type: biochemical, human; details: 1 uM compound
Method: as §1

EPH-B1, sequence (P54762 18-984): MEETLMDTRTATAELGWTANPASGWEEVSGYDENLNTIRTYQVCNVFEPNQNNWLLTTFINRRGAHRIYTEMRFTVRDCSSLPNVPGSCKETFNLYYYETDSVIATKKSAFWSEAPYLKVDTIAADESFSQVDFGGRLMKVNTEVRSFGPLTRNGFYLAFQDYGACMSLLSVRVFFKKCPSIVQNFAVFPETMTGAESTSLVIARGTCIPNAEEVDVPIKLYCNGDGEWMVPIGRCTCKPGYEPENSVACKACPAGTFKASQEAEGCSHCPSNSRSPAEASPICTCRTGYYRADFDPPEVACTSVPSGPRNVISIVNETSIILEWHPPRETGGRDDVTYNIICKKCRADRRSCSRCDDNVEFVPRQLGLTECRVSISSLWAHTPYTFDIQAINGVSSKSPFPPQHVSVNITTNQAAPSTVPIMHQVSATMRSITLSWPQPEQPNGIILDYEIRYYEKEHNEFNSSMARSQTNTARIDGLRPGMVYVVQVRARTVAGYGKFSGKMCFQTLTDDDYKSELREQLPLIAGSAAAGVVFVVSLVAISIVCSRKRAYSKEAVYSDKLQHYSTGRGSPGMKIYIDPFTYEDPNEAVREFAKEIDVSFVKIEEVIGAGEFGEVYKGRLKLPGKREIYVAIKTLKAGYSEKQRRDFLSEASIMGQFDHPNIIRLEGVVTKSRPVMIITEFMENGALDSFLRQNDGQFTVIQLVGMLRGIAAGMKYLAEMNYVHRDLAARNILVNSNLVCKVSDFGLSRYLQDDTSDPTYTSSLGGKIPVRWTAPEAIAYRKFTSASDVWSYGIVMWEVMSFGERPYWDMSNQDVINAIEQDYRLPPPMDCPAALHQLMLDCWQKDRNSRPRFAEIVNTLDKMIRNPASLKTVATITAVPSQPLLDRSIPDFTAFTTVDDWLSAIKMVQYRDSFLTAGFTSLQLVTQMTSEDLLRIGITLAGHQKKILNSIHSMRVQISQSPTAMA
ASK1, sequence (Q99683 whole entry): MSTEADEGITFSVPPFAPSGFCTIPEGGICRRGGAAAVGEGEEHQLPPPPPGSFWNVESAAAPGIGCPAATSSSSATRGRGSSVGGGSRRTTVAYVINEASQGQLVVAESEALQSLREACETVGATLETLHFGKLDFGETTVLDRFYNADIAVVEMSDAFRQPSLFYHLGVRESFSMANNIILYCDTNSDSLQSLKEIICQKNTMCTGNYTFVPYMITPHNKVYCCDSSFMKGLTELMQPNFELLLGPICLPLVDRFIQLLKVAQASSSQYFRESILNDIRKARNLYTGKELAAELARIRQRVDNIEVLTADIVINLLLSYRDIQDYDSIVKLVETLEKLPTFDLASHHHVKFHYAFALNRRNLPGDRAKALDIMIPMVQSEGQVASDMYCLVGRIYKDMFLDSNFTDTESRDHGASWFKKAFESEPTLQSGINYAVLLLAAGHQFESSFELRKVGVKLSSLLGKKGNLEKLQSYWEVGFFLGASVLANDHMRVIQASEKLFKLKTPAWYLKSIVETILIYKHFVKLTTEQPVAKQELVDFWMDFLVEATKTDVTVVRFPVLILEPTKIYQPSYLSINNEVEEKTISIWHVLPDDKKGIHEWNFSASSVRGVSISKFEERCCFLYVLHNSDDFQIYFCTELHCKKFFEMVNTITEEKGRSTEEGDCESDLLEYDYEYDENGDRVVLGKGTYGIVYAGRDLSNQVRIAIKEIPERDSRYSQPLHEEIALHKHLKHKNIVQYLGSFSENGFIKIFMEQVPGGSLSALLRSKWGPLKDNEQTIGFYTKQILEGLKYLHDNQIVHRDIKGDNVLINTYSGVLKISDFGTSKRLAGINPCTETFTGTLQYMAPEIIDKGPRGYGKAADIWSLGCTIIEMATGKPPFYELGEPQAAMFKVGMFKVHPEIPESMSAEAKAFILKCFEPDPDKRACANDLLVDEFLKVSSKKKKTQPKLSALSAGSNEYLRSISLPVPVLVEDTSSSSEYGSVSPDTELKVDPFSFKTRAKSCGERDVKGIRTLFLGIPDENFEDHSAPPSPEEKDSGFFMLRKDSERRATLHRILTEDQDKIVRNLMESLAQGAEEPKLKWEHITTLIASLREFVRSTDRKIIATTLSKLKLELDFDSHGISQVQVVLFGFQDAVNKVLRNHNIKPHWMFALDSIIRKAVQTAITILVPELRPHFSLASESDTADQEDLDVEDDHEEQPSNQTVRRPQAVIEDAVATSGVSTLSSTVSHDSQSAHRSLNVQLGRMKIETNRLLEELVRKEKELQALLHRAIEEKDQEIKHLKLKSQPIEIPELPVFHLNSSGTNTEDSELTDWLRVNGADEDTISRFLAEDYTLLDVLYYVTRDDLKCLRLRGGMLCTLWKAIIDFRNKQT
T1 sequence (P49760 140-496): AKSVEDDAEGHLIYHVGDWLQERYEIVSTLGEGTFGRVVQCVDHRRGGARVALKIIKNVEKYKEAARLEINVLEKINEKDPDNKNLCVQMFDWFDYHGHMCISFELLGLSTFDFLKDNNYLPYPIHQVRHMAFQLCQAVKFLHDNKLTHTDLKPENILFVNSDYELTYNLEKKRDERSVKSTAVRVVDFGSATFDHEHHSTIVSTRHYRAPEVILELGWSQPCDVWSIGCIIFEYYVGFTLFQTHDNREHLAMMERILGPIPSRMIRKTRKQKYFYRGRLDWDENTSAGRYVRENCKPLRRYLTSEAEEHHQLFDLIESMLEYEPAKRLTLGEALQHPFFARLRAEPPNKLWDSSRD
EPH-B2, sequence (P29323 19-1055): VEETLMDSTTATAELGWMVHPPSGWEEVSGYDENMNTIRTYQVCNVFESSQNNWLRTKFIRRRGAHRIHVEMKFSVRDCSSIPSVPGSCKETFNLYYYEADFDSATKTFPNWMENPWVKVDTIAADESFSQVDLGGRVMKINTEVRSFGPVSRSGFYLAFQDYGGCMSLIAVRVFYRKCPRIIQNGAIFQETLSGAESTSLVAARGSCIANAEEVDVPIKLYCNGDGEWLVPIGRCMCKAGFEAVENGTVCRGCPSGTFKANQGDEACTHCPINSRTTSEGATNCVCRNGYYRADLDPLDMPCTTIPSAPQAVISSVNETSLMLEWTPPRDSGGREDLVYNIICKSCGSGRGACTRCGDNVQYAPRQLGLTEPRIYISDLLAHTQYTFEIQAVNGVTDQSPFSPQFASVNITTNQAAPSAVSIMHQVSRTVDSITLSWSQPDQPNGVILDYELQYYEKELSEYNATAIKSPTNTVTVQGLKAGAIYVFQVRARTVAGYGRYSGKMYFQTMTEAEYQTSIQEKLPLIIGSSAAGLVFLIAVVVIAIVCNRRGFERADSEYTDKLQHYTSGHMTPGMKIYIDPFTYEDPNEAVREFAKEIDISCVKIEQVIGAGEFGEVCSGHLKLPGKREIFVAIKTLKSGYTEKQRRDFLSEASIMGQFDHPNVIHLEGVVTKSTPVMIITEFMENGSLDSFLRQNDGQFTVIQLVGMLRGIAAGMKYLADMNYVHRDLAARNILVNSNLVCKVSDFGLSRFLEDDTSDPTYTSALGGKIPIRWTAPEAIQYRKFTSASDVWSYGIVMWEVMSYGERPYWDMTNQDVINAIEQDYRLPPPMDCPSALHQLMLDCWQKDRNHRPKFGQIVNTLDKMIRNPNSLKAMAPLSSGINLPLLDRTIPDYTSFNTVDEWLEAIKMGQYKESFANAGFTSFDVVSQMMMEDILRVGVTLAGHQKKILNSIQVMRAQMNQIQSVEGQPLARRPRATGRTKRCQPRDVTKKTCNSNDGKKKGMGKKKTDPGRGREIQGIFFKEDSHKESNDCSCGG
EIF2AK3, sequence (Q9NZJ5 30-1116): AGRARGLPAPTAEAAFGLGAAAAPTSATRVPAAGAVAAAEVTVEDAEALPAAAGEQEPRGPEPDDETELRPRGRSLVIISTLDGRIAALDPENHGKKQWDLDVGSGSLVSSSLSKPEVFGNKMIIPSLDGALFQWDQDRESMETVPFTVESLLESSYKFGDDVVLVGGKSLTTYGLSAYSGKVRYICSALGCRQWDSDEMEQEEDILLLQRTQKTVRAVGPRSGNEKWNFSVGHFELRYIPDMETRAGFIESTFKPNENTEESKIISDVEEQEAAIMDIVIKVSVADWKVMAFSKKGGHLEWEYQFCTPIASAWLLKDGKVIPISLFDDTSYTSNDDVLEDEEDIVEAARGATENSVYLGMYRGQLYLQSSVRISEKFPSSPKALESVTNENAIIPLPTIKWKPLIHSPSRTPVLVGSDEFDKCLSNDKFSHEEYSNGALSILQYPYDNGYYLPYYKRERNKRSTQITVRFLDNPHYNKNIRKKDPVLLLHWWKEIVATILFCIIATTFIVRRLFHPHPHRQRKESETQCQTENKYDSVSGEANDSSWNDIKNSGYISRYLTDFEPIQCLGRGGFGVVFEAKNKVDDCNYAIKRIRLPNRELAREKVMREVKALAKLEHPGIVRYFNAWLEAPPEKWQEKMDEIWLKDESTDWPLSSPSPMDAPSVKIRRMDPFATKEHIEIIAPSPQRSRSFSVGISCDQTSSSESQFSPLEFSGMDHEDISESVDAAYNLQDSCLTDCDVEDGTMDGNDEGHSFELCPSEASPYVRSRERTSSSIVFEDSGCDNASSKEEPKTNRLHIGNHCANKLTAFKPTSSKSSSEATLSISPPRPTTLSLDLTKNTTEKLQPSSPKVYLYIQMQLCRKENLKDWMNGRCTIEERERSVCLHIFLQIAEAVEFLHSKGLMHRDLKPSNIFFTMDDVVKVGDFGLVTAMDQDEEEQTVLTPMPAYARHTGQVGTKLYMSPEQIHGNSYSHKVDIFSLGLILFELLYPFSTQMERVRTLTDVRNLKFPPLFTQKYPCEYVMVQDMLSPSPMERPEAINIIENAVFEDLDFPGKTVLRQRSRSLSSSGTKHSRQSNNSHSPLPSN
CLK2, sequence (P49760 140-496): as the sequence (P49760 140-496) above

Structure (SMILES) | % inhibition of luciferase (firefly luciferase) [%] | decrease of inhibition against CLK2 compared to 3A5 (CLK2) | PLK1 activity in kinase profiling (PLK1) | HIPK3 activity in kinase profiling (HIPK3) | EIF2AK3 activity in kinase profiling (EIF2AK3) | MST3 activity in kinase profiling (MST3) | EPH-B2 activity in kinase profiling (EPH-B2) | EPH-B1 activity in kinase profiling (EPH-B1) | p38d MAPK activity in kinase profiling (p38d MAPK) | PIM1 activity in kinase profiling (PIM1) | ASK1 activity in kinase profiling (ASK1) | PDGFRA activity in kinase profiling (PDGFRA) | inhibition at 10 µM [1] [%] | PHK activity in kinase profiling (PHK) | AMPK (hum) activity in kinase profiling (AMPK (hum))
CSc1nc2ccc3nc(NC(=O)c4ccco4)sc3c2s1 [5E4, N-[7-(methylsulfanyl)[1,3]thiazolo[4,5-g][1,3]benzothiazol-2-yl]-2-furamide] | 29.7 ± 2.9 | 2–3 fold | 102 | 50 | 84 | 99 | 94 | 93 | 103 | 96 | 84 | 86 | 57 | 110 | 84
Cc1nc2ccc3sc(NC(=O)c4ccc5ncsc5c4)nc3c2s1 [3A5, N-(2-methyl[1,3]thiazolo[5,4-e][1,3]benzothiazol-7-yl)-1,3-benzothiazole-6-carboxamide] | 6.7 ± 2.8 |  | 110 | 100 | 119 | 100 | 90 | 101 | 105 | 71 | 59 | 91 | 68 | 104 | 68
